From patent publication US20200114012A1, “METHOD FOR PRODUCING A LIQUID COMPOSITION” (The University of Liverpool, priority 2017, published 2020) come the findings set out here.

Where only a bound is given, the exact number is not on record here.

One may read the solubility as how much of the substance goes into solution per volume.

One data set can be described thus: Solubility of TDF in solvents and of TDF particulates in oils. It is filed as physicochemical. The conditions noted are these: dichloromethane. The text has this: Therefore methanol was used for the first solvent. TDF is not soluble in dichloromethane, which was used as the second solvent.
A selection of biocompatible natural oils were used to form liquid compositions. These oils were selected as the TDF particulates were insoluble in them and the oils could be dissolved into the mixed solvent system. The oils used were peanut oil, soy bean oil, sesame oil and safflower oil.
Take `CC(C)OC(=O)OCOP(=O)(CO[C@H](C)Cn1cnc2c(N)ncnc21)OCOC(=O)OC(C)C.O=C(O)/C=C/C(=O)O` [TDF, tenofovir disoproxil fumerate]: the solubility in dichloromethane entry was “not soluble”.

The same data set, now with this note: methanol, organic solvent or mixture.
As for `CC(C)OC(=O)OCOP(=O)(CO[C@H](C)Cn1cnc2c(N)ncnc21)OCOC(=O)OC(C)C.O=C(O)/C=C/C(=O)O` [TDF, tenofovir disoproxil fumerate], the solubility was not above 80 mg/mL.

The nature of a further data set: Precipitation of TDF particulates with stabiliser combinations (Example 5). It is filed as physicochemical. The note with it: Stabiliser B combined with Stabiliser A AOT, procedure of Example 2. As for the experimental part:
800 μL of the stabiliser-containing dichloromethane solution was pipetted into a 4 mL volume glass vial. 200 μL of TDF-containing methanol solution was rapidly pipetted into the same vial, which was then sealed and briefly shaken. A white, hazy suspension formed instantaneously. […] The TDF loading of the particulates was altered by changing the concentration of the methanol and dichloromethane solutions prior to mixing. It should be noted that this approach allows for different volumes of the TDF particulate suspensions to be produced simply by increasing the volumes added, so long as the 4:1 ratio of dichloromethane to methanol is maintained, this allows for fine control of the concentration of the TDF particles dispersed in the oil of the liquid composition.
Following the procedure described in Example 2, the following combinations of stabilisers were used to form TDF particulates (see table 7 below).
On to “polyethylene glycol sorbitan monooleate [Tween ™ 80]”, for which the “Successful Precipitation” value is “Yes”. On to `CCCCC/C=C\C/C=C\CCCCCCCC(=O)OCC(O)CO` (stereo not drawn) [Maisine ™ 35-1, glyceryl monolinoleate], for which the “Successful Precipitation” value is “Yes”. Same read-out and setting: in the case of “propylene glycol monocaprylate (type I) [Capryol ™ PGMC]” it was “Yes”; in that of “propylene glycol monolaurate (type I) [Lauroglycol ™ FCC]”, “Yes”.

On to sorbitan oleate [Span ™ 80], for which the “Successful Precipitation” value is “Yes”. As for “propylene glycol monopalmitostearate [Monosteol ™]”, the “Successful Precipitation” value was “Yes”. The same measure, in the same setting: for “polyglyceryl-3 diisostearate [Plurol ™ diisosteraque]” the value was “Yes”; for “propylene glycol monocaprylate (type II) [Capryol ™ 90]”, “Yes”; for “propylene glycol monolaurate (type II) [Lauroglycol ™ 90]”, “Yes”. On the same count and under the same terms, in the case of “polyglyceryl-6 dioleate [Plurol ™ Olique]” it was “Yes”; in that of “polyoxyethylenesorbitan monopalmitate [Tween ™ 40]”, “Yes”; in that of `CCCCCCCC/C=C\CCCCCCCC(=O)OCC(O)CO` (stereo not drawn) [Pecol ™, glycerol mono-oleate], “Yes”. On the same count and under the same terms, for “polyoxyethylene (2) stearyl ether [Brij ™ S2]” the value was “Yes”.
